Measured values from patent publication US8067430B1, “Anti-HIV activity of the opioid antagonist naloxone” (University of South Florida, priority 2003, dated 2011).
Where a name gives a salt, the structure may show the parent alone.

Experiments:
[1] = tested on: HIV-1 gp120 (external envelope glycoprotein); assay: Immunoblot (Western blot) of gp120 in lysates of HIV infected Supt 1 cells; format: cell-based, HIV-1MN
Procedure: The expression of the essential HIV coat protein gp120 is measured by this technique. Western Blot analysis of gp120 detected with a murine anti-gp120 monoclonal antibody from HIV-1 infected cells treated with naloxone or AZT. HIV-MN infected Supt 1 cells treated will different molar concentrations of naloxone or AZT. Cells were lysed at 3 days after infection of the cells with cell free HIV-1MN and 100 μg of the lysate was loaded onto SDS-PAGE, transferred onto a Hybond ECL membrane and detected with an anti-gp120 monoclonal antibody. VC=viral control (infected cells with no drug treatment).
200TCID-50 per milliliter (tissue culture infectious dose) of HIV-MN cell free virus was used to infect 500,000/milliliter of a human T cell line (called SupTI) in the presence (at a range of concentrations) or absence (control) of naloxone-HC1/or AZT. The TCID-50 is an amount of virus which will infect 50% of non-infected target cells. The virus+cells+drugs (naloxone or AZT) were incubated at 37 degrees Celsius in an atmosphere of 5% carbon dioxide for three days. Cells were lysed by using a detergent 1% Triton-X100. This preparation was frozen in liquid nitrogen and thawed at 37 degrees Celsius for three cycles. The preparation was vortexed vigorously for 20 seconds at the end of each cycle. Samples were then stored at −80 degrees Celsius until analysis. […]

[2] = tested on: reverse transcriptase activity in HIV-MN infected Supt 1 cells; assay: RT activity assay on lysates of HIV-MN infected, drug-treated Supt 1 cells; format: cell-based
Procedure: 200TCID-50 per milliliter (tissue culture infectious dose) of HIV-MN cell free virus was used to infect 500,000/milliliter of a human T cell line (called SupTI) in the presence (at a range of concentrations) or absence (control) of naloxone-HC1/or AZT. The TCID-50 is an amount of virus which will infect 50% of non-infected target cells. The virus+cells+drugs (naloxone or AZT) were incubated at 37 degrees Celsius in an atmosphere of 5% carbon dioxide for three days. Cells were lysed by using a detergent 1% Triton-X100. This preparation was frozen in liquid nitrogen and thawed at 37 degrees Celsius for three cycles. The preparation was vortexed vigorously for 20 seconds at the end of each cycle. Samples were then stored at −80 degrees Celsius until analysis. Total RNA from the samples were prepared by using the Tri-reagent assay and aliquoted and stored at −80 degrees Celsius until RT-PCR (reverse transcriptase-polymerase chain reaction) analysis.
A 96 well microplate was coated with 200 μl/well of a 40 mg/ml solution of polyA and incubated at room temperature overnight with rocking. […] The color reaction in the wells was measured spectrophotometrically. Color development was proportional to the amount of RT in the wells and quantitation was made based upon a standard curve of using recombinant RT. […]

[3] = target: T1, recombinant RT (Human immunodeficiency virus type 1 group M subtype B, UniProt P04585); assay: Effect on recombinant RT; format: biochemical; conditions: different molar concentrations; protein not within the HIV viral lysate
T1 construct: effect of different molar concentrations of naloxone on recombinant RT

[4] = tested on: HIV gp41 transmembrane envelope glycoprotein RNA; assay: RT-PCR of gp41 RNA from HIV infected target cells; format: cell-based, HIV-MN; conditions: different molar concentrations, hydrochloride
Description: Total RNA from the preparations described above was used as a template for the generation of complementary DNA (cDNA). This was accomplished through the use of commercial RT-PCR kits (Gibco/BRL/Life Technologies, Inc., Rockville, Md.). […]

[5] = tested on: GADPH; assay: RT-PCR control: expression of constitutive enzyme GADPH; format: cell-based, human; conditions: housekeeping gene control in RT-PCR
Procedure: Total RNA from the preparations described above was used as a template for the generation of complementary DNA (cDNA). This was accomplished through the use of commercial RT-PCR kits (Gibco/BRL/Life Technologies, Inc., Rockville, Md.). The gene for the HIV gp41 transmembrane envelope glycoprotein was amplified from the RT products through the use of the following PCR cycling conditions: 94 degrees Celsius for 2 minutes followed by 52 degrees Celsius for 1 minutes then followed by 32 cycles at 94 degrees Celsius for 1 minutes, 52 degrees Celsius for 1 minutes, 72 degrees Celsius for […], then PCR extension was accomplished at 72 degrees Celsius for 10 minutes. The cycles were then ended by incubation at 4 degrees Celsius for 16 hours. […] (microliters) of PCR products were then loaded onto a 1.5% agarose gel containing 5 μg/ml of ethidium bromide. Bands in the gel with a size of 1.2 kb was considered to be gp41 based upon the primers used in the assay: Primer Sequences are as follows: Sense: 5 prime-[…]-3 prime (SEQ ID NO:1); Antisense 5 prime-[…]-3 prime (SEQ ID NO:2). In order to eliminate the possibility that the drug treatments could have an inhibitory effect on the RT used in the RT-PCR reaction rather than the HIV RT a constitutive (i.e. always expressed) enzyme called GADPH was used as a control. […]

Compound: C=CCN1CC[C@]23c4c5ccc(O)c4O[C@H]2C(=O)CC[C@@]3(O)[C@H]1C5 [naloxone, naloxone hydrochloride]
- expression of gp120 protein (Western blot) ([1]; HIV infected lymphocytes): significantly depress expression
- inhibition of HIV as measured by gp120 expression, compared with AZT ([1]; equivalent molar concentrations, cells lysed 3 days after infection): as effective, or more effective, than equivalent molar concentrations of AZT
- inhibition of RT activity in HIV infected cells compared with AZT ([2]; identical molar dose range of AZT): at least as effective as AZT
- RT activity in HIV-MN infected Supt 1 cells ([2]; treatment dose increasing from 10^-11 to 10^-4 M, 3 days, vs no drug control): RT activity decreases
- effect on recombinant RT [3]: direct inhibitory effect on RT
- expression of RNA for envelope glycoprotein gp41 (RT-PCR) [4]: inhibiting expression of RNA for the envelope glycoprotein gp41
- expression of RNA for envelope glycoprotein gp41 (RT-PCR) ([4]; listed as Naloxone): significantly depress expression
- effect of drug treatment on expression of GADPH [5]: No effect
